Laboratory results reported in the CheMixHub viscosity set.
“And” between values parts separate entries of the source, which are not always exact repeats. Identical values can stand only once. ± gives the uncertainty stated by the source.

Experiment: xn = mol fraction of the nth substance listed

CC(C)NC(C)C + CCCCCCO
viscosity [mPa·s], 101 kPa
Conditions | 298.15 K | 303.15 K | 308.15 K
x1 = 0.0503 | 3.969 ± 0.066 | 3.366 ± 0.065 | 2.859 ± 0.063
x1 = 0.1067 | 3.51 ± 0.065 | 3.018 ± 0.064 | 2.588 ± 0.063
x1 = 0.1499 | 3.195 ± 0.064 | 2.751 ± 0.063 | 2.379 ± 0.062
x1 = 0.2041 | 2.823 ± 0.063 | 2.438 ± 0.063 | 2.114 ± 0.062
x1 = 0.253 | 2.501 ± 0.063 | 2.171 ± 0.062 | 1.901 ± 0.062
x1 = 0.3054 | 2.188 ± 0.062 | 1.9 ± 0.062 | 1.675 ± 0.061
x1 = 0.4026 | 1.665 ± 0.061 | 1.475 ± 0.061 | 1.318 ± 0.061
x1 = 0.4986 | 1.272 ± 0.061 | 1.156 ± 0.061 | 1.046 ± 0.061
x1 = 0.6007 | 0.952 ± 0.06 | 0.883 ± 0.06 | 0.813 ± 0.06
x1 = 0.7077 | 0.718 ± 0.06 | 0.675 ± 0.06 | 0.628 ± 0.06
x1 = 0.7994 | 0.582 ± 0.06 | 0.547 ± 0.06 | 0.514 ± 0.06
x1 = 0.8518 | 0.52 ± 0.06 | 0.492 ± 0.06 | 0.462 ± 0.06
x1 = 0.9021 | 0.471 ± 0.06 | 0.443 ± 0.06 | 0.42 ± 0.06
x1 = 0.9545 | 0.42 ± 0.06 | 0.401 ± 0.06 | 0.378 ± 0.06

C=CCN=C=S + CN(C)c1ccccc1
303.15 K, 101 kPa
Conditions | viscosity [mPa·s]
x1 = 0.2324 | 1.032 ± 0.027
x1 = 0.4846 | 0.884 ± 0.023
x1 = 0.7377 | 0.761 ± 0.02

O=CN1CCOCC1 + Cc1cc(C)cc(C)c1
298.15 K, 101.3 kPa
Conditions | viscosity [mPa·s]
x2 = 0.02898 | 7.041 ± 0.049
x2 = 0.0601 | 6.315 ± 0.045
x2 = 0.08748 | 5.789 ± 0.042
x2 = 0.1453 | 4.838 ± 0.036
x2 = 0.2504 | 3.53 ± 0.027
x2 = 0.3197 | 2.903 ± 0.022
x2 = 0.4426 | 2.093 ± 0.017
x2 = 0.5274 | 1.701 ± 0.014
x2 = 0.6167 | 1.375 ± 0.011
x2 = 0.661 | 1.264 ± 0.01
x2 = 0.7503 | 1.058 ± 0.009
x2 = 0.8348 | 0.877 ± 0.007
x2 = 0.9476 | 0.731 ± 0.006

S=C=S + CC(C)=O
viscosity [mPa·s]
Conditions | 293.15 K | 298.15 K
101 kPa, x1 = 0.035 | 0.32 ± 0.004 | 0.3065 ± 0.0035
101 kPa, x1 = 0.107 | 0.316 ± 0.004 | 0.3025 ± 0.0035
101 kPa, x1 = 0.167 | 0.315 ± 0.004 | 0.3015 ± 0.0035
101 kPa, x1 = 0.202 | 0.314 ± 0.004 | 0.301 ± 0.004
101 kPa, x1 = 0.304 | 0.316 ± 0.004 | 0.3015 ± 0.0035
101 kPa, x1 = 0.408 | 0.319 ± 0.004 | –
101 kPa, x1 = 0.498 | 0.324 ± 0.004 | 0.31 ± 0.004
101 kPa, x1 = 0.633 | 0.3325 ± 0.0038 | 0.3185 ± 0.0036
101 kPa, x1 = 0.762 | 0.343 ± 0.004 | –
101 kPa, x1 = 0.89 | 0.354 ± 0.004 | 0.3365 ± 0.0038
101.33 kPa, x2 = 0.1384 | – | 0.3361 ± 0.0084
101.33 kPa, x2 = 0.2716 | – | 0.3258 ± 0.0082
101.33 kPa, x2 = 0.3443 | – | 0.3242 ± 0.0081
101.33 kPa, x2 = 0.4624 | – | 0.3103 ± 0.0078
101.33 kPa, x2 = 0.5524 | – | 0.3035 ± 0.0076
101.33 kPa, x2 = 0.6431 | – | 0.3003 ± 0.0075
101.33 kPa, x2 = 0.7358 | – | 0.2975 ± 0.0075
101.33 kPa, x2 = 0.8389 | – | 0.2974 ± 0.0075
101.33 kPa, x2 = 0.9171 | – | 0.2993 ± 0.0075

O=S(=O)([O-])[O-].[Co+2] + O
viscosity, 101.33 kPa
Conditions | x1 = 0.000905 | x1 = 0.002718 | x1 = 0.00453 | x1 = 0.006344 | x1 = 0.008159 | x1 = 0.04354 | x1 = 0.05633
298.15 K | – | – | – | – | – | 3.182 ± 0.088 mPa·s | –
308.15 K | 0.7454 ± 0.021 mPa·s | 0.799 ± 0.023 mPa·s | 0.8405 ± 0.024 mPa·s | 0.897 ± 0.025 mPa·s | 0.949 ± 0.026 mPa·s | – | –
313.15 K | 0.6751 ± 0.019 mPa·s | 0.7255 ± 0.021 mPa·s | 0.7615 ± 0.022 mPa·s | 0.814 ± 0.023 mPa·s | 0.8555 ± 0.024 mPa·s | – | –
323.15 K | 0.5699 ± 0.017 mPa·s | 0.6065 ± 0.018 mPa·s | 0.642 ± 0.019 mPa·s | 0.689 ± 0.02 mPa·s | 0.739 ± 0.021 mPa·s | – | 3.091 ± 0.082 mPa·s and 3.091 ± 0.081 mPa·s
